Activity calls are given as the source filed them. The rule behind the calls is not given here.
Legend:
[1] = Induction of neurite outgrowth in Sprague-Dawley E18 rat hippocampal neurons assessed as neurite length after 24 hrs by DAPI staining-based assay relative to control; type: functional, Hippocampal neurone
[2] = target: T1, Neurotrophic factor BDNF precursor form (Homo sapiens) (UniProt P23560); assay: Binding affinity to BDNF (unknown origin) at 800 nM by SPR assay
T1 sequence (whole entry): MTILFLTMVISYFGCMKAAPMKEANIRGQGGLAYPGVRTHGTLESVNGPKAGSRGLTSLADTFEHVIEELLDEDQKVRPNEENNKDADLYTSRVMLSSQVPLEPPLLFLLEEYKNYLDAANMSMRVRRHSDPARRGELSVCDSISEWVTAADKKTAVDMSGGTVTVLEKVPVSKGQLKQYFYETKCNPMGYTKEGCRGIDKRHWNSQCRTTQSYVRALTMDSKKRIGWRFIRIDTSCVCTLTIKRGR

[3] = target: T2, Midkine (Homo sapiens) (UniProt P21741); assay: Binding affinity to MDK (unknown origin) at 800 nM by SPR assay
T2 sequence (whole entry): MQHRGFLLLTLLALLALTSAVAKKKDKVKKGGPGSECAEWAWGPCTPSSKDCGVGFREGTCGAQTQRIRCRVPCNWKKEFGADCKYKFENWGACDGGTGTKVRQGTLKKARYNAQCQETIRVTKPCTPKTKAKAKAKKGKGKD

[4] = target: T3, Pleiotrophin (Homo sapiens) (UniProt P21246); assay: Binding affinity to PTN (unknown origin) at 800 nM by SPR assay
T3 sequence (whole entry): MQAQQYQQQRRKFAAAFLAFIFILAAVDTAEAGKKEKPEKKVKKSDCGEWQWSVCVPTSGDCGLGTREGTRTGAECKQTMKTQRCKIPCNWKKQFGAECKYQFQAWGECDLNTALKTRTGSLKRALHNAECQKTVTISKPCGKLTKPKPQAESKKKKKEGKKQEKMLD

[5] = target: Fibroblast growth factor 1 (Homo sapiens) (UniProt P05230); assay: Binding affinity to FGF-1 (unknown origin) at 800 nM by SPR assay
Fibroblast growth factor 1 (Homo sapiens), sequence (P05230 whole entry): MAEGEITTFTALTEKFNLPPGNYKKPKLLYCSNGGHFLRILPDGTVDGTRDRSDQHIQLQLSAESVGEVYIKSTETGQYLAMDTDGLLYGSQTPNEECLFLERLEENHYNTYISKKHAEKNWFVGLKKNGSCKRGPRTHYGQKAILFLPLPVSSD

[6] = target: T4, Neurotrophic factor BDNF precursor form (Homo sapiens, UniProt P23560); assay: Binding affinity to BDNF (unknown origin) by SPR assay
T4 sequence (P23560 whole entry): T1 sequence (whole entry)

[7] = target: T5, Midkine (Homo sapiens, UniProt P21741); assay: Binding affinity to MDK (unknown origin) by SPR assay
T5 sequence (P21741 whole entry): T2 sequence (whole entry)

[8] = target: T6, Pleiotrophin (Homo sapiens, UniProt P21246); assay: Binding affinity to PTN (unknown origin) by SPR assay
T6 sequence (P21246 whole entry): T3 sequence (whole entry)

[9] = system: Hippocampal neurone; assay: Induction of neurite outgrowth in Sprague-Dawley E18 rat hippocampal neurons assessed as neurite length at 250 ug/ml solubilized in culture media after 24 hrs by DAPI staining-based assay relative to control; type: functional, cell-based
[10] = system: Hippocampal neurone; assay: Induction of neurite outgrowth in Sprague-Dawley E18 rat hippocampal neurons assessed as neurite length at 50 ug/ml in presence of Proteus vulgaris Chondroitinase ABC after 12 hrs by DAPI staining-based assay relative to control; type: functional, cell-based
[11] = system: Hippocampal neurone; assay: Induction of neurite outgrowth in Sprague-Dawley E18 rat hippocampal neurons assessed as neurite length after 24 hrs in presence of anti-MDK antibody by DAPI staining-based assay relative to control; type: functional, cell-based
[12] = system: Hippocampal neurone; assay: Induction of neurite outgrowth in Sprague-Dawley E18 rat hippocampal neurons assessed as neurite length after 24 hrs in presence of anti-BDNF antibody by DAPI staining-based assay relative to control; type: functional, cell-based

Activity [2]	Activity [3]	Activity [4]	Activity [5]	Kd [6]	Kd [7]	Kd [8]	Activity [10]	Compound	Activity [1]	Activity [9]	Activity [11]	Activity [12]
inactive	inactive	inactive	inactive	–	–	–	–	CC(=O)N[C@H]1[C@H](O[C@H]2[C@H](O)[C@@H](O)[C@H](O[C@H]3[C@@H](O)[C@@H](COS(=O)(=O)O)O[C@@H](OCCCCCCN=[N+]=[N-])[C@@H]3NC(C)=O)O[C@@H]2C(=O)O)O[C@H](COS(=O)(=O)O)[C@H](O)[C@@H]1O[C@@H]1O[C@H](C(=O)O)[C@@H](O)[C@H](O)[C@H]1O	1%	–	–	–
–	–	–	inactive	155 nM	96.3 nM	365 nM	inactive	CC(=O)N[C@H]1[C@H](O[C@H]2[C@H](O)[C@@H](O)[C@H](O[C@@H]3[C@@H](NC(C)=O)[C@H](OCCCCCCN=[N+]=[N-])O[C@H](COS(=O)(=O)O)[C@@H]3OS(=O)(=O)O)O[C@@H]2C(=O)O)O[C@H](COS(=O)(=O)O)[C@H](OS(=O)(=O)O)[C@@H]1O[C@@H]1O[C@H](C(=O)O)[C@@H](O)[C@H](O)[C@H]1O	29.6%	inactive	–	–
inactive	inactive	inactive	inactive	–	–	–	–	CC(=O)N[C@H]1[C@H](O[C@H]2[C@H](O)[C@@H](O)[C@H](O[C@H]3[C@H](O)[C@@H](CO)O[C@@H](OCCCCCCN=[N+]=[N-])[C@@H]3NC(C)=O)O[C@@H]2C(=O)O)O[C@H](CO)[C@@H](O)[C@@H]1O[C@@H]1O[C@H](C(=O)O)[C@@H](O)[C@H](O)[C@H]1O	–	–	–	–
–	–	–	inactive	490 nM	52.3 nM	77.8 nM	–	CC(=O)N[C@H]1[C@H](O[C@H]2[C@H](O)[C@@H](O)[C@H](O[C@H]3[C@H](O)[C@@H](COS(=O)(=O)O)O[C@@H](OCCCCCCN=[N+]=[N-])[C@@H]3NC(C)=O)O[C@@H]2C(=O)O)O[C@H](COS(=O)(=O)O)[C@@H](O)[C@@H]1O[C@@H]1O[C@H](C(=O)O)[C@@H](O)[C@H](O)[C@H]1O	27.3%	inactive	inactive	inactive
–	inactive	inactive	inactive	659 nM	–	–	–	CC(=O)N[C@H]1[C@H](O[C@H]2[C@H](O)[C@@H](O)[C@H](O[C@@H]3[C@@H](NC(C)=O)[C@H](OCCCCCCN=[N+]=[N-])O[C@H](COS(=O)(=O)O)[C@H]3OS(=O)(=O)O)O[C@@H]2C(=O)O)O[C@H](COS(=O)(=O)O)[C@@H](OS(=O)(=O)O)[C@@H]1O[C@@H]1O[C@H](C(=O)O)[C@@H](O)[C@H](O)[C@H]1O	6.7%	–	–	–
inactive	inactive	inactive	inactive	–	–	–	–	CC(=O)N[C@H]1[C@H](O[C@H]2[C@H](O)[C@@H](O)[C@H](O[C@@H]3[C@@H](NC(C)=O)[C@H](OCCCCCCN=[N+]=[N-])O[C@H](CO)[C@H]3OS(=O)(=O)O)O[C@@H]2C(=O)O)O[C@H](CO)[C@@H](OS(=O)(=O)O)[C@@H]1O[C@@H]1O[C@H](C(=O)O)[C@@H](O)[C@H](O)[C@H]1O	–	–	–	–
